What follows are molecules tested against Poly(ADP-ribose) glycohydrolase (Homo sapiens, UniProt Q86W56) (assay: Inhibition of PARG TEMU Assay).
Procedure: The ability of the compounds of the Examples to inhibit PARG activity in 4. (trifluoromethyl)umbelliferone (TFMU) assay was determined as described below. PARG inhibitors were added into 384 well plate for a 10-point dose response curve at 1:3 dilutions. TFMU PARG substrate and PARG (250 pM or 2 nM) were then added to the plate to initiate enzymatic reaction. After incubation with the reagent, […] was read. IC50 values were calculated using set control points for 100% inhibition as no enzyme and 0% inhibition 250 pM or 2 nM of PARG enzyme.

Sequence of Poly(ADP-ribose) glycohydrolase (Q86W56 whole entry): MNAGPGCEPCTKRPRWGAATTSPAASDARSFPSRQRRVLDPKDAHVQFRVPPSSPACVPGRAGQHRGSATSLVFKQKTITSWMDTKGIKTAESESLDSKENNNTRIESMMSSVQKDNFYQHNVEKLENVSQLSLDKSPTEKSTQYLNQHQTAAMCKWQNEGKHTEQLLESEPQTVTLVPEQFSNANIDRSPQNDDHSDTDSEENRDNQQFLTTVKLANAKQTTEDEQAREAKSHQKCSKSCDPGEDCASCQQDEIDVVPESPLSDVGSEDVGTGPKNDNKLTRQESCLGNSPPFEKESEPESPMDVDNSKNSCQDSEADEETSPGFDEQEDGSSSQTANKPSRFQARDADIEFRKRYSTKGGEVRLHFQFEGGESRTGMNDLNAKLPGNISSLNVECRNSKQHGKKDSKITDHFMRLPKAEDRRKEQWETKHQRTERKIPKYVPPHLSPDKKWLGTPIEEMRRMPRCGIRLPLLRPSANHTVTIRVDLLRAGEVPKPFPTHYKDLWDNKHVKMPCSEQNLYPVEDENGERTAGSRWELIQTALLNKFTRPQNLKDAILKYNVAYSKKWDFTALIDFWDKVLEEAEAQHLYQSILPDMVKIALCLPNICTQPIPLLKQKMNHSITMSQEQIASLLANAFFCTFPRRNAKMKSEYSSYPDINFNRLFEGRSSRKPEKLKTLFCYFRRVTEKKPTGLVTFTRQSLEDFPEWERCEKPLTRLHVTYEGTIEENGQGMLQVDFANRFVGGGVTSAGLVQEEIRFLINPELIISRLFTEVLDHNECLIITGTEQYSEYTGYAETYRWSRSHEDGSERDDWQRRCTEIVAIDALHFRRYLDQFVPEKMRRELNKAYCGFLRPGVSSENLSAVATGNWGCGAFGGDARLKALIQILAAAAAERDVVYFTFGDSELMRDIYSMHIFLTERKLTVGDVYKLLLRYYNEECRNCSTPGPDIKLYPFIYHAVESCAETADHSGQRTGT

IC50	SMILES
< 50 nM	CC1(NS(=O)(=O)c2cc(N3CCN(C(=O)N4CCCC4)CC3)c3cnn(-c4nnc(C(F)F)s4)c3c2)COC1 [US20250346564, Example 35]
< 50 nM	O=C(N1CCCC1)N1CCN(c2cc(S(=O)(=O)NC3(CF)COC3)cc3c2cnn3-c2nnc(C(F)F)s2)CC1 [US20250346564, Example 36]
> 5000 nM	CC[C@@H]1C[C@]1(C)NS(=O)(=O)c1ccc2c(c1)c(=O)n(CC)c(=O)n2CC [US20250346564, Example 13A]
